Experimental data reported in patent US9434743B2, “Indazole derivatives” (TAKEDA PHARMACEUTICAL COMPANY LIMITED, priority 2012, dated 2016).
pIC50: −log10 of the molar value.

Columns and labels:
[1] = genetically and diet-induced obese mice; cited from earlier work
[2] = target: T1, human MetAP2 enzyme (Homo sapiens, UniProt P50579); test: MetAP2 enzyme assay, enzyme complexed with manganese ions; conditions: MetAP2 Mn pIC50, MetAP2 enzyme complexed with manganese ions; Met-AMC substrate at Km
Description: DNA encoding the full-length sequence of human MetAP2 enzyme is amplified by PCR and cloned into a pFastBac expression vector (Invitrogen). Recombinant baculovirus incorporating the MetAP2 construct is generated by transposition using the Bac-to-Bac system (Invitrogen). The expression of recombinant protein is carried out by infection of Spodoptera frugiperda Sf9 cells (Invitrogen) in 5 L Wave Bioreactors (Wave Biotech). Recombinant protein is isolated from cellular extracts by binding to an SP Hitrap Fast Flow or SP Sepharose (Sigma) column, and the protein is eluted using a NaCl gradient. Partially purified extracts of MetAP2 are further purified by an AKTA FPLC over a Superdex-200 column (GE). The purity of MetAP2 protein is determined on denaturing SDS-PAGE gel.
The results for each well are expressed as percent inhibition and calculated using the equation:

[3] = target: T1, human MetAP2 enzyme; test: MetAP2 enzyme assay, enzyme complexed with cobalt ions; conditions: MetAP2 Co pIC50, MetAP2 enzyme complexed with cobalt ions; Met-AMC substrate at Km

T1 sequence (P50579 whole entry): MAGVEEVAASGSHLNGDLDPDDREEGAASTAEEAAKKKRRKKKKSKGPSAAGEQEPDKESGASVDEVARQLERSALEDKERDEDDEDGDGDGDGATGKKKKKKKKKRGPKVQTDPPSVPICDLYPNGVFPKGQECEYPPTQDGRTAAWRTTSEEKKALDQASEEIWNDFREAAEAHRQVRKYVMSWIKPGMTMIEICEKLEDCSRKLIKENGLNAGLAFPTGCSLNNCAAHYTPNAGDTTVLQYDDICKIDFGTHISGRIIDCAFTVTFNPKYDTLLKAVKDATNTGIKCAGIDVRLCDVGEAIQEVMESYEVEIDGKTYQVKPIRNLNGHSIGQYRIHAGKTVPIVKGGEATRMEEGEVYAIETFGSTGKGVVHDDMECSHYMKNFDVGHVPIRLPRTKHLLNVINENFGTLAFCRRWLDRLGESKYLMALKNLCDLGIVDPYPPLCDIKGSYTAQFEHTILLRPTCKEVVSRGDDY

For `CO[C@@H]1[C@H](OC(=O)/C=C/c2ccc(OCCN(C)C)cc2)CC[C@]2(CO2)[C@H]1[C@@]1(C)O[C@@H]1CC=C(C)C` [CKD-732], the “food intake, body weight, fat mass, size of adipocytes” value [1] is listed as “decrease food intake, body weight, fat mass, and the size of adipocytes”.
In the case of `CC(=O)Nc1cc(C)c(-c2cc(C(F)(F)F)cc3[nH]ncc23)cn1` [Example 179, N-(4-methyl-5-(6-(trifluoromethyl)-1H-indazol-4-yl)pyridin-2-yl)acetamide], the pIC50 [2] was 8.00 and the pIC50 [3] was 7.60.
`CN(C)C(=O)Cn1c(=O)c(-c2cc(C(F)(F)F)cc3[nH]ncc23)cn(C)c1=O` [Example 309, N,N-dimethyl-2-(3-methyl-2,6-dioxo-5-(6-(trifluoromethyl)-1H-indazol-4-yl)-2,3-dihydropyrimidin-1(6H)-yl)acetamide] gave a pIC50 [2] of 7.70 and a pIC50 [3] of 6.00.
Compound `Cc1nn(CC(=O)NCCO)c(C)c1-c1cc(C(F)(F)F)cc2[nH]ncc12` [Example 386, 2-(3,5-dimethyl-4-(6-(trifluoromethyl)-1H-indazol-4-yl)-1H-pyrazol-1-yl)-N-(2-hydroxyethyl)acetamide] has a pIC50 [2] of 7.90 and a pIC50 [3] of 7.20.
With `COc1nc(Cl)ccc1-c1cc(C(F)(F)F)cc2[nH]ncc12` [Example 392, 4-(6-chloro-2-methoxypyridin-3-yl)-6-(trifluoromethyl)-1H-indazole] the pIC50 [2] was 7.90 and the pIC50 [3] was 6.70.
With `Cc1c(C(=O)N2CCN(C)CC2)cc(-c2cc(C(F)(F)F)cc3[nH]ncc23)c(=O)n1C` [Example 401, 1,6-dimethyl-5-(4-methylpiperazine-1-carbonyl)-3-(6-(trifluoromethyl)-1H-indazol-4-yl)pyridin-2(1H)-one] the pIC50 [2] was 8.20 and the pIC50 [3] was 6.70.
In the case of `FC(F)(F)c1cc(-c2cnc(N3CCOCC3)cn2)c2cn[nH]c2c1` [Example 94, 4-(5-(6-(trifluoromethyl)-1H-indazol-4-yl)pyrazin-2-yl)morpholine], the pIC50 [2] was 8.50 and the pIC50 [3] was 7.20.
Compound `CNC(=O)c1ncncc1-c1cc(C(F)(F)F)cc2[nH]ncc12` [Example 254, N-methyl-5-(6-(trifluoromethyl)-1H-indazol-4-yl)pyrimidine-4-carboxamide] has a pIC50 [2] of 7.50 and a pIC50 [3] of 6.10.
Work on `O=C(NCCO)c1cc(-c2cc(C(F)(F)F)cc3[nH]ncc23)c[nH]c1=O` [Example 228, N-(2-hydroxyethyl)-2-oxo-5-(6-(trifluoromethyl)-1H-indazol-4-yl)-1,2-dihydropyridine-3-carboxamide] yielded a pIC50 [2] of 8.30 and a pIC50 [3] of 6.80.
For `CC(=O)Nc1cccnc1-c1cc(C(F)(F)F)cc2[nH]ncc12` [Example 218, N-(2-(6-(trifluoromethyl)-1H-indazol-4-yl)pyridin-3-yl)acetamide], the pIC50 [2] was 6.60 and the pIC50 [3] was 5.70.
`FC(F)(F)c1cc(-c2cccc3ncccc23)c2cn[nH]c2c1` [Example 101, 5-(6-(trifluoromethyl)-1H-indazol-4-yl)quinoline] gave a pIC50 [2] of 8.00 and a pIC50 [3] of 7.50.
`Cc1nc2[nH]c(O)nc2cc1-c1cc(C(F)(F)F)cc2[nH]ncc12` [Example 382, 5-methyl-6-(6-(trifluoromethyl)-1H-indazol-4-yl)-3H-imidazo[4,5-b]pyridin-2-ol] showed a pIC50 [2] of 8.20 and a pIC50 [3] of 7.90.
Work on `CCNC(=O)Cn1c(=O)c(-c2cc(C(F)(F)F)cc3[nH]ncc23)cn(C)c1=O` [Example 302, N-ethyl-2-(3-methyl-2,6-dioxo-5-(6-(trifluoromethyl)-1H-indazol-4-yl)-2,3-dihydropyrimidin-1(6H)-yl)acetamide] yielded a pIC50 [2] of 8.20 and a pIC50 [3] of 6.30.
`Cn1cc(-c2cc(C(F)(F)F)cc3[nH]ncc23)ccc1=O` [Example 373, 1-methyl-5-(6-(trifluoromethyl)-1H-indazol-4-yl)pyridin-2(1H)-one] showed a pIC50 [2] of 8.20 and a pIC50 [3] of 6.90.
For `CN(C)CCn1c(=O)c(-c2cc(C(F)(F)F)cc3[nH]ncc23)cn(C)c1=O` [Example 319, 3-(2-(dimethylamino)ethyl)-1-methyl-5-(6-(trifluoromethyl)-1H-indazol-4-yl)pyrimidine-2,4(1H,3H)-dione], the pIC50 [2] was 7.40 and the pIC50 [3] was 5.90.
For `OCc1cccc(-c2cc(C(F)(F)F)cc3[nH]ncc23)c1` [Example 8, (3-(6-(trifluoromethyl)-1H-indazol-4-yl)phenyl)methanol], the pIC50 [2] was 8.50 and the pIC50 [3] was 7.40.
For `COc1ncc(-c2cc(C(F)(F)F)cc3[nH]ncc23)c2cc[nH]c12` [Example 291, 4-(7-methoxy-1H-pyrrolo[2,3-c]pyridin-4-yl)-6-(trifluoromethyl)-1H-indazole], the pIC50 [2] was 8.00 and the pIC50 [3] was 7.20.
`O=C(NCCO)c1ccc(-c2cc(C(F)(F)F)cc3[nH]ncc23)cn1` [Example 270, N-(2-hydroxyethyl)-5-(6-(trifluoromethyl)-1H-indazol-4-yl)picolinamide] showed a pIC50 [2] of 8.50 and a pIC50 [3] of 7.40.
For `Cc1nc2ccccn2c1-c1cc(C(F)(F)F)cc2[nH]ncc12` [Example 150, 4-(2-methylimidazo[1,2-a]pyridin-3-yl)-6-(trifluoromethyl)-1H-indazole], the pIC50 [2] was 6.60 and the pIC50 [3] was 6.10.
`COc1ccc(C(=O)N2CCOCC2)cc1-c1cc(C(F)(F)F)cc2[nH]ncc12` [Example 267, (4-methoxy-3-(6-(trifluoromethyl)-1H-indazol-4-yl)phenyl)(morpholino)methanone] showed a pIC50 [2] of 8.00 and a pIC50 [3] of 7.40.
For `CCn1nc(C)c(-c2cc(C(F)(F)F)cc3[nH]ncc23)c1C` [Example 168, 4-(1-ethyl-3,5-dimethyl-1H-pyrazol-4-yl)-6-(trifluoromethyl)-1H-indazole], the pIC50 [2] was 8.20 and the pIC50 [3] was 7.60.
With `CC(C)(C)C(=O)Nc1ncccc1-c1cc(C(F)(F)F)cc2[nH]ncc12` [Example 73, N-(3-(6-(trifluoromethyl)-1H-indazol-4-yl)pyridin-2-yl)pivalamide] the pIC50 [2] was 7.10 and the pIC50 [3] was 6.70.
Compound `Cc1nn(C)c(C)c1-c1cc(C(F)(F)F)cc2[nH]ncc12` [Example 164, 6-(trifluoromethyl)-4-(1,3,5-trimethyl-1H-pyrazol-4-yl)-1H-indazole] has a pIC50 [2] of 8.40 and a pIC50 [3] of 7.80.
`COc1cccnc1-c1cc(C(F)(F)F)cc2[nH]ncc12` [Example 213, 4-(3-methoxypyridin-2-yl)-6-(trifluoromethyl)-1H-indazole] showed a pIC50 [2] of 7.10 and a pIC50 [3] of 6.20.
`COCc1[nH]nc(C)c1-c1cc(C(F)(F)F)cc2[nH]ncc12` [Example 323, 4-(5-(methoxymethyl)-3-methyl-1H-pyrazol-4-yl)-6-(trifluoromethyl)-1H-indazole] showed a pIC50 [2] of 7.90 and a pIC50 [3] of 8.00.
`Cn1ncc(-c2cc(C(F)(F)F)cc3[nH]ncc23)c1CO` [Example 250, (1-methyl-4-(6-(trifluoromethyl)-1H-indazol-4-yl)-1H-pyrazol-5-yl)methanol] gave a pIC50 [2] of 8.20 and a pIC50 [3] of 7.10.
Compound `COc1nc(C(N)=O)ccc1-c1cc(C(F)(F)F)cc2[nH]ncc12` [Example 391, 6-methoxy-5-(6-(trifluoromethyl)-1H-indazol-4-yl)picolinamide] has a pIC50 [2] of 8.30 and a pIC50 [3] of 7.40.
Compound `COc1ncc(-c2cc(C(F)(F)F)cc3[nH]ncc23)c(N)n1` [Example 256, 2-methoxy-5-(6-(trifluoromethyl)-1H-indazol-4-yl)pyrimidin-4-amine] has a pIC50 [2] of 8.00 and a pIC50 [3] of 6.90.
In the case of `O=c1[nH]cc(-c2cc(C(F)(F)F)cc3[nH]ncc23)c(=O)[nH]1` [Example 54, 5-(6-(trifluoromethyl)-1H-indazol-4-yl)pyrimidine-2,4(1H,3H)-dione], the pIC50 [2] was 8.20 and the pIC50 [3] was 6.40.
Compound `OCc1ccc(Cl)c(-c2cc(C(F)(F)F)cc3[nH]ncc23)c1` [Example 128, (4-chloro-3-(6-(trifluoromethyl)-1H-indazol-4-yl)phenyl)methanol] has a pIC50 [2] of 7.90 and a pIC50 [3] of 7.40.
Compound `Cc1cn(C)c(-c2cc(C(F)(F)F)cc3[nH]ncc23)n1` [Example 163, 4-(1,4-dimethyl-1H-imidazol-2-yl)-6-(trifluoromethyl)-1H-indazole] has a pIC50 [2] of 7.90 and a pIC50 [3] of 6.10.
For `O=C(NC1CC1)c1c[nH]c(=O)c(-c2cc(C(F)(F)F)cc3[nH]ncc23)c1` [Example 332, N-cyclopropyl-6-oxo-5-(6-(trifluoromethyl)-1H-indazol-4-yl)-1,6-dihydropyridine-3-carboxamide], the pIC50 [2] was 7.90 and the pIC50 [3] was 6.50.
For `FC(F)(F)c1cc(-c2cnc3ccnn3c2)c2cn[nH]c2c1` [Example 275, 6-(6-(trifluoromethyl)-1H-indazol-4-yl)pyrazolo[1,5-a]pyrimidine], the pIC50 [2] was 8.30 and the pIC50 [3] was 6.90.
Compound `NC(=O)c1cc(-c2cc(C(F)(F)F)cc3[nH]ncc23)c[nH]c1=O` [Example 231, 2-oxo-5-(6-(trifluoromethyl)-1H-indazol-4-yl)-1,2-dihydropyridine-3-carboxamide] has a pIC50 [2] of 8.20 and a pIC50 [3] of 6.80.
`Cc1nn(CCC(N)=O)c(C)c1-c1cc(C(F)(F)F)cc2[nH]ncc12` [Example 172, 3-(3,5-dimethyl-4-(6-(trifluoromethyl)-1H-indazol-4-yl)-1H-pyrazol-1-yl)propanamide] showed a pIC50 [2] of 8.10 and a pIC50 [3] of 7.30.
In the case of `N#Cc1cccc(-c2cc(C(F)(F)F)cc3[nH]ncc23)c1` [Example 33, 3-(6-(trifluoromethyl)-1H-indazol-4-yl)benzonitrile], the pIC50 [2] was 8.00 and the pIC50 [3] was 7.00.
In the case of `CCOc1ncccc1-c1cc(C(F)(F)F)cc2[nH]ncc12` [Example 133, 4-(2-ethoxypyridin-3-yl)-6-(trifluoromethyl)-1H-indazole], the pIC50 [2] was 8.00 and the pIC50 [3] was 7.20.
`Cc1ccc(C(=O)N2CCC(O)CC2)cc1-c1cc(C(F)(F)F)cc2[nH]ncc12` [Example 372, (4-hydroxypiperidin-1-yl)(4-methyl-3-(6-(trifluoromethyl)-1H-indazol-4-yl)phenyl)methanone] gave a pIC50 [2] of 7.50 and a pIC50 [3] of 7.00.
In the case of `Cc1nc2cc(-c3cc(C(F)(F)F)cc4[nH]ncc34)cnc2[nH]1` [Example 341, 2-methyl-6-(6-(trifluoromethyl)-1H-indazol-4-yl)-3H-imidazo[4,5-b]pyridine], the pIC50 [2] was 8.10 and the pIC50 [3] was 7.80.
